The values that follow come from paper PMC7869707 (European Journal of Medicinal Chemistry, 2021).

For this experiment, the system named is wild-type SARS-CoV-2 (wuhan-HU-1 variant). The format is cell-based.

On to `C[C@@H]1O[C@@H](O[C@H]2[C@H](O[C@H]3CC[C@]4(C)[C@H]5CC=C6[C@@H]7CC(C)(C)CC[C@]7(C(=O)NCc7ccccc7)CC[C@@]6(C)[C@]5(C)CC[C@H]4C3(C)C)O[C@H](CO)[C@@H](O[C@@H]3O[C@@H](C)[C@H](O)[C@@H](O)[C@H]3O)[C@@H]2O)[C@H](O)[C@H](O)[C@H]1O` [Compound 12f, N-{3β-O-[2,4-di-O-(a-L-rhamnopyranosyl)-β-D-glucopyranosyl]-olean-12-en-28-oyl}-benzylamine], for which the “Inhibition of SARS-CoV-2 infection by IFA, NP expression” value is “dose-dependent manner”.
